# In patent US20250213452A1, “BIFUNCTIONAL PEPTIDES FOR BIOMIMETIC RECONSTRUCTION OF SILVER DIAMINE FLUORIDE TREATED DENTAL TISSUES” (University of Kansas, priority 2022, published 2025):
# Read-outs that look alike come from different tables or passages of the source.
# Columns and labels:
# [1] = cell-free assay, demineralized human dentin root surfaces; cited from earlier work
# [2] = Enzyme-mediated mineralization on SDF-treated dental tissue slabs, SEM/EDS Ca/P ratio of mineral layer; set-up: species or system human; details: for Averaged calculated Ca/P ratio: Mineralized sample
# Experimental: (§1) Lyophilized peptide stocks were selected and reconstituted in Milli-Q (resistance, >18 MQ) water immediately prior to experiments with both silver-coated silica substrates and slabs of dental tissue. Stock solutions were prepared to a final concentration of 100 μM peptide. Silica substrates or slabs of dental tissue were submerged into a solution containing 50 μM peptide and allowed 2-4 hours gentle shaking at room temperature to ensure the binding of AgBP. This excess concentration and incubation time was used to ensure ample peptide binding.
# NaCl containing 0.002% sodium azide.
# To investigate calcium phosphate nucleation facilitated by the MP, an alkaline phosphatase (AP) based mineralization model was followed.^44 This model mimics the biological process wherein inorganic phosphate is cleaved from organic phosphate by naturally occurring AP and subsequently reacts with free calcium. Briefly, control samples without peptide and test samples functionalized with MP were submerged in a remineralization buffer containing 14.4 mM β-glycerophosphate (β-GP) and 24 mM Ca^2+ in 25 mM Tris-HCl at pH 7.4. Mineralization reactions were initiated by adding alkaline phosphatase (fastAP; ThermoFisher, USA) to the solutions to achieve a final concentration of 1.4×10^−6 g/mL and allowed to react at 37° C. for 2 hours to form a calcium phosphate mineral layer on the sample surface. Samples were removed from the solution and allowed to air dry prior to microscopic and spectroscopic analyses.
# For the bifunctional peptide treated group, SDF-treated dental tissues were functionalized with either 0 μM or 50 μM bifunctional peptide prior to the mineralization protocol. […] On average, the Ca/P ratios from the mineralized layer observed in both the peptide-treated and SDF-treated tissue as well as the SDF-only treated tissues, were about 0.1-0.15 less than what was obtained for the untreated and peptide-functionalized Ag-coated silica samples. The presence of calcium phosphate rich minerals in the slabs of dental tissue may alter the availability of free calcium and phosphate in the enzyme-mediated mineralization reaction. […] Differences in the mineralization may also be attributed to the anchoring effect of the AgBP peptide being bound to the SDF-treated regions of the dental tissue.
# [3] = SDF-treated Control
# Experimental: Specimens of dental tissues were prepared using a protocol modified slightly from previous publications.^45 The specimens consisted of extracted human molars. […] The extracted teeth were stored at 4° C. in 0.9% wt./vol. NaCl containing 0.002% sodium azide. […] The tooth was sectioned parallel to the long axis to provide 1.4 mm thick slabs. The prepared sections were stored in a modified phosphate buffered saline (PBS) buffer (20 mM Na2HPO4, 137 mM NaCl, 2.7 mM KCl, and 1.8 mM KH2PO4, pH 7.4) at 4° C. until experimental use.
# SDF was applied to dental tissue following the detailed guidelines published by the UCSF Caries Arrest Committee.^25,34 Briefly, the prepared slabs of dental tissue were removed from the modified PBS buffer, rinsed with Milli-Q purified water, and gently dried with compressed air to reveal suitable carious regions of the dental tissues. A single drop of commercially available 38% SDF solution (Dengen Caries Arrest; Dengen Dental, Bahadurgarh, Haryana, India) was placed into a fresh plastic dish. A microbrush applicator head was dipped into the solution and touched to the side of the dish to remove excess fluid by surface tension. The SDF was applied to the dental tissue, allowed to absorb for 1 minute and the treated sample was gently rinsed with Milli-Q purified water. The tissue was placed back into modified PBS buffer and incubated at 37° C. for 6 hours to mimic the oral environment and to allow for SDF activity.
# To image the mineral morphology, surface coverage, and to determine the Ca/P ratios of the precipitated material, a Hitachi SU8230 Field Emission Scanning Electron Microscope (Hitachi High-Tech America, IL, USA) equipped with a silicon drift EDS detector (X-Max, Oxford Instruments, MA, USA) was used. SEM imaging was completed at 5 kV and EDS measurements made with an acceleration voltage of 10 kV to improve signal. Prior to SEM/EDS analysis, samples were sputter-coated with 5 nm iridium using a Quorum sputter coating system (Q150, Quorum, UK). EDS analysis was performed using AZtec software (Oxford Instruments, MA, USA) and values were averaged across a minimum of three regions for each sample.
# Treated dental tissues were analyzed using SEM for imaging and EDS for compositional analysis. Average Ca/P molar ratios were calculated for each slab of dental tissue from both SDF-treated and untreated regions of enamel and dentin, corresponding to SDF treatment of carious dental tissues, to assess mineral formation and compositional changes on the tooth samples in the presence and absence of the bifunctional peptide.
# [4] = Enzyme-mediated (alkaline phosphatase) mineralization on Ag-coated silica substrates, SEM/EDS; details: 50 μM bifunctional peptide
# Experimental: as §1
# To confirm the selectivity and specificity for silver-binding of bifunctional peptides, preliminary studies were conducted on silver-coated silica substrates. Silica wafers were cut into 1 cm square pieces using a diamond scribe and a published protocol for […] deposition of silver onto silica was followed.^66,67 Briefly, the Si(111) wafers were cleansed in hydrogen peroxide and sulfuric acid solution (3:7) for 20 minutes, rinsed thoroughly with Milli-Q water, and dried with N2 gas prior to use. An etching step was employed prior to Ag-deposition, where a drop of 5% NH4F solution was placed on the surface of the cleaned silica substrate for 30 s and removed carefully with N2 gas. […]
substance,measurement,setting,value
"SYEKSHSQAINTDRT [MP, mineralizing peptide domain, 15 amino acids, derived from amelogenin]",hydroxyapatite mineral layer formation,[1],regulated formation of a robust hydroxyapatite mineral layer
silver diamine fluoride [SDF],Averaged calculated Ca/P ratio,"[2]; SDF-treated, 0 μM peptide, Dentin",1.066
same,Averaged calculated Ca/P ratio,"[2]; SDF-treated, 0 μM peptide, Enamel",1.092
same,Averaged calculated Ca/P ratio,"[2]; SDF-treated, 0 μM peptide, SDF-stained dentin",1.137
same,Averaged calculated Ca/P ratio,"[2]; SDF-treated, 0 μM peptide, SDF-stained enamel",1.100
same,Averaged calculated Ca/P ratio,[3]; Dentin (untreated region),1.419
same,Averaged calculated Ca/P ratio,[3]; Enamel (untreated region),1.447
same,Averaged calculated Ca/P ratio,[3]; SDF-stained dentin,1.546
same,Averaged calculated Ca/P ratio,[3]; SDF-stained enamel,1.540
"SYEKSHSQAINTDRTAPAEQLGVRKELRGV [MP_APA_AgBP, bifunctional peptide, MP and AgBP domains joined by APA spacer]",Averaged calculated Ca/P ratio,"[2]; SDF-treated Peptide-functionalized (50 μM), Dentin",1.291
same,Averaged calculated Ca/P ratio,"[2]; SDF-treated Peptide-functionalized (50 μM), Enamel",1.338
same,Averaged calculated Ca/P ratio,"[2]; SDF-treated Peptide-functionalized (50 μM), SDF-stained dentin",1.238
same,Averaged calculated Ca/P ratio,"[2]; SDF-treated Peptide-functionalized (50 μM), SDF-stained enamel",1.257
same,mineralization onto SDF treated dental tissues,"[2]; four SDF treated slabs of carious dental tissue, bright field optical microscopy, FIG. 7",demonstrated the capacity to direct mineralization
same,average Ca/P ratio of mineral layer,[4]; EDS,about 1.40
same,mineral coverage compared to control samples,"[4]; alkaline phosphatase-based mineralization, SEM",significantly higher mineral coverage
